Experiments:
Type in all cases: cell-based
[1] = test system: root segments (rhizogenic tissues) of Piper longum; experiment: Shoot bud proliferation from root segments on MS medium with BAP; details: 23° C.
Experimental: Sub-culturing the 18 root segments separately onto MS basal medium supplemented with Benzyl Amino Purine (BAP) (0.5-3 mg/L), 2-4% sucrose, 100 mg/l myo-inositol and 0.7-1.2% agar for solidifying the medium.
Cultures were kept at 23° C. +/−1° C. under 2000-4000 Lux light intensity for a photoperiod of 16 hours followed by a dark period of 8 hours.
Each segment produced 50-55 adventitious shoot buds i.e. (18×50=900 shoot buds).

[2] = test system: regenerated shoots of Piper longum; experiment: Rooting of regenerated shoots on MS medium with IBA; details: IBA 0.1-3.1 mg/L
Experimental: 2.5-3 cm long shoots with 2-3 nodes were carefully separated from the culture clumps using a sterile scalpel under LF.
Sub-culturing 10 separated shoots in a wide mouthed bottle containing MS basal medium fortified with Indole Butyric Acid (IBA) (1-3 mg/L), 2-4% sucrose, 100 mg/L myo-inositol and 0.7-1.2% agar.
Rooting of the regenerated shoots under reduced light 1000-3000 Lux for 28 days. Photoperiod and temperatures remains the same as before.

[3] = test system: lateral bud (meristematic) explant of Piper longum; experiment: Induction of rhizogenesis from lateral bud explants on culture initiation medium (MS + NAA)
Experimental: Preparing culture initiation medium by using MS basal medium described by Murashige and Skoog in 1968. To the MS basal medium, sucrose (2-4%), agar powder (0.7-1.2%), 100 mg/L myo-inositol and Naphthalene Acetic Acid (NAA) (0.01-0.5 mg/L) was added. This medium was autoclaved at 15 psi for 20 min and then cooled to solidify at room temperature.
Using sterilized forceps, each isolated and surface sterilized lateral bud was inoculated in a test tube containing 15 ml of above-mentioned medium; by placing the cut end of the lateral buds touching the medium.
Incubating the inoculated explants in dark at 23° C. +/−1° C. for 7-15 days. By this time, 6-7 root primordia appear from the basal cut end of all the lateral buds.
Transferring incubated cultures in light having 2000-4000 lux light intensity.
A photoperiod of 16 hours was provided followed by a dark period of 8 hours daily.
Allowing each root to grow to an average size of […] in 45 days.
A lateral bud (meristematic) explant from any position of a young or mature plant of Piper longum was taken and cultured in an MS basal medium supplemented with sucrose (2-4%), NAA (0.1-0.5 mg/l) and gelled with agar (0.7-1.2%). These were incubated in dark for 10 days at 23° C.±1° C. and transferred to a light intensity of 1000-3000 lux for 16 Hrs. followed by 8 Hrs. dark period resulting into rhizogenesis, producing 6-7 root like organs, by direct organogenosis from meristematic tissues of lateral buds, which grew up to 1.5 cm in length by 45th day of isolation.

c1ccc(CNc2ncnc3[nH]cnc23)cc1 [BAP, Benzylaminopurine]
adventitious shoot buds produced per root segment ([1]; BAP 0.5-3 mg/L in MS basal medium, 2000-4000 Lux, 16 hours photoperiod): 50-55
adventitious shoot bud formation ([1]; BAP 0.5-3 mg/L, 0.5 cm long root segments, 2000-4000 lux, 16 Hrs. light/8 Hrs. dark): adventitious shoot bud formation from all the root segments

Indole Butyric Acid [IBA]
response of separated shoots (rooting) [2]: All separated shoots were responsive
root system from the basal cut ends of shoots ([2]; in 4 weeks time): produced healthy root system

Naphthalene Acetic Acid [NAA]
root primordia appearing from the basal cut end of the lateral buds ([3]; NAA 0.01-0.5 mg/L in MS basal medium, dark, 23° C. +/−1° C., 7-15 days): 6-7
root like organs produced by direct organogenesis (rhizogenesis) ([3]; NAA 0.1-0.5 mg/l in MS basal medium, 10 days dark at 23° C., then 1000-3000 lux 16 Hrs./8 Hrs. dark): 6-7
length of root like organs ([3]; NAA 0.1-0.5 mg/l, by 45th day of isolation): up to 1.5 cm

Reference: patent publication US7402433B2, “Method of in-vitro micropropagation of Piper longum plants” (Reliance Life Sciences Pvt. Ltd., priority 2003, dated 2008)
